# Assays:
# [1] = Measurement of fluorescence quantum yield (Rhodamine B in ethanol as reference); format: physicochemical
# [2] = Absorption and emission spectra of dyes in different solvents; format: physicochemical; set-up: key to Δλ1 / Δλ2: Stokes shift in nm; ε1 (molar extinction coefficient) / ε2 (molar extinction coefficient): scale not given here; details: for Δλ1: Stokes shift to absorption peak 1; for Δλ2: Stokes shift to absorption peak 2
# Excerpt: In the present invention, compounds IIa to IIg were synthesized based on compound II, and their spectral properties were investigated. Compared with the traditional pentamethine cyanine dye, for the novel pentamethine cyanine dye with N-substituting at β-position (deviated position), it was observed that, evident blue shift of absorption and emission wavelengths occurred, absorption wavelength blue shifted even largely than that of emission wavelength, absorption spectrum and fluorescence spectrum were no longer mirror-symmetric and had two absorption peaks and a single emission peak, and larger Stokes shift (minimum 60 and 150 nm, and maximum 90 and 230 nm) appeared.
# calf thymus DNA (ct-DNA) = assay: Titration of dye solution with calf thymus DNA, fluorescence and UV absorption; format: binding; details: dye 1×10^−6 M, PBS pH 7.4
# Experimental: The solutions of compounds Ha to IIc in a concentration of 1×10^−6M (10 mM PBS buffer (pH=7.4) was used as solvent) was prepared, and 3 ml of the each dye solution was added into a cuvette separately. Then, an aqueous calf thymus DNA stock solution was prepared, the concentration of the calf thymus DNA stock solution was determined as 1.5×10^−3 mM by the absorbance at 260 nm on UV absorption spectrophotometer. The calf thymus DNA stock solution was added dropwise into each of the dye solution. The fluorescence intensity of the dye was measured each 5 minutes after addition of […] for fluorescence becoming stable, on UV-visible spectrophotometer (Mode: Hp8453) and fluorescence spectrophotometer (Mode: FP-6500).
# From the interaction results of three dyes with calf thymus DNA, it can be known that no evident fluorescence increase was found after the interaction of the dye with the DNA. FIGS. 4 and 5 were titration figures of the interaction of dye lib with calf thymus DNA. […] All of these indicated DNA could be differentiated from protein by dyes IIa, IIb and IIc.
# [3] = biological target: bovine serum albumin (BSA) (Bos taurus, UniProt P02769); assay: Titration of dye solution with BSA, fluorescence and UV absorption; format: binding; details: dye solution 1 μM, PBS pH 7.4
# Experimental: The solutions of compounds Ha to IIc in a concentration of 1×10^−6M (10 mM PBS buffer (pH=7.4) was used as solvent) was prepared, and 3 ml of the each dye solution was added into a cuvette, respectively. Then, an aqueous bovine serum albumin (BSA) stock solution with the concentration of […] (750 μM) was added dropwise into each of the dye solution. The fluorescence intensity of the dye was measured each 5 minutes after addition of BSA for fluorescence becoming stable, on UV-visible spectrophotometer (Mode: Hp8453) and fluorescence spectrophotometer (Mode: FP-6500).
# Especially for dyes IIb and IIc, the fluorescence intensity thereof was increased linearly with addition of BSA to arrive at more than 30 folds.
# Sequence of bovine serum albumin (BSA) (P02769 25-607): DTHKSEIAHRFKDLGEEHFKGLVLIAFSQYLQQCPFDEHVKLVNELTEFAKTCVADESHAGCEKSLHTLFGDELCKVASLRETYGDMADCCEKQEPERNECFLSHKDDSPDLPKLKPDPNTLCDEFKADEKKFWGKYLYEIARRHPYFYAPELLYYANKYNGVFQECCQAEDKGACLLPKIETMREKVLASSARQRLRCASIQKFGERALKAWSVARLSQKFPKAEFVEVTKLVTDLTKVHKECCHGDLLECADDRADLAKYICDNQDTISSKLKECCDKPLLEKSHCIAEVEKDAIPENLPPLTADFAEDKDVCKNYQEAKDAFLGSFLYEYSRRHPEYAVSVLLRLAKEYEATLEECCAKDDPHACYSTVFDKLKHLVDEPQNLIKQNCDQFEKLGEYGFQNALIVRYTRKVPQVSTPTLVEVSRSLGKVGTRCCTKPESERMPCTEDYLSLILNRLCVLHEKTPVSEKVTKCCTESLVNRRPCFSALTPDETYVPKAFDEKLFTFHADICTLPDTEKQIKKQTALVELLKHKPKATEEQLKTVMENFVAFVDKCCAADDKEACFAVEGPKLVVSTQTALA
smiles,measurement,setting,value
CCN1/C(=C/C=C/C(N)=C/C2=[N+](CC)c3ccccc3C2(C)C)C(C)(C)c2ccccc21 [Dye IIa],Φ1 (fluorescence quantum yield),[1]; solvent DCM,0.115
same,Φ2 (fluorescence quantum yield),[1]; solvent DCM,0.032
same,Φ1 (fluorescence quantum yield),[1]; solvent DMSO,0.020
same,Φ2 (fluorescence quantum yield),[1]; solvent DMSO,0.009
same,Φ1 (fluorescence quantum yield),[1]; solvent Ethanol,0.014
same,Φ2 (fluorescence quantum yield),[1]; solvent Ethanol,0.009
same,Φ1 (fluorescence quantum yield),[1]; solvent Methanol,0.007
same,Φ2 (fluorescence quantum yield),[1]; solvent Methanol,0.004
same,Φ1 (fluorescence quantum yield),[1]; solvent THF,0.053
same,Φ2 (fluorescence quantum yield),[1]; solvent THF,0.008
same,Φ1 (fluorescence quantum yield),[1]; solvent Water,0.002
same,Φ2 (fluorescence quantum yield),[1]; solvent Water,0.001
same,Δλ1,[2]; solvent DCM,63
same,Δλ1,[2]; solvent DMSO,75
same,Δλ1,[2]; solvent Ethanol,75
same,Δλ1,[2]; solvent Methanol,78
same,Δλ1,[2]; solvent THF,64
same,Δλ1,[2]; solvent Water,92
same,Δλ2,[2]; solvent DCM,191
same,Δλ2,[2]; solvent DMSO,189
same,Δλ2,[2]; solvent Ethanol,182
same,Δλ2,[2]; solvent Methanol,188
same,Δλ2,[2]; solvent THF,182
same,Δλ2,[2]; solvent Water,203
same,ε1 (molar extinction coefficient),[2]; solvent DCM,5.4 cm^−1M
same,ε2 (molar extinction coefficient),[2]; solvent DCM,1.6 cm^−1M
same,λabs1,[2]; solvent DCM,546 nm
same,λbs2,[2]; solvent DCM,418 nm
same,λem,[2]; solvent DCM,609 nm
same,ε1 (molar extinction coefficient),[2]; solvent DMSO,4.9 cm^−1M
same,ε2 (molar extinction coefficient),[2]; solvent DMSO,1.7 cm^−1M
same,λabs1,[2]; solvent DMSO,533 nm
same,λbs2,[2]; solvent DMSO,419 nm
same,λem,[2]; solvent DMSO,608 nm
same,ε1 (molar extinction coefficient),[2]; solvent Ethanol,4.8 cm^−1M
same,ε2 (molar extinction coefficient),[2]; solvent Ethanol,2.0 cm^−1M
same,λabs1,[2]; solvent Ethanol,527 nm
same,λbs2,[2]; solvent Ethanol,420 nm
same,λem,[2]; solvent Ethanol,602 nm
same,ε1 (molar extinction coefficient),[2]; solvent Methanol,5.1 cm^−1M
same,ε2 (molar extinction coefficient),[2]; solvent Methanol,2.0 cm^−1M
same,λabs1,[2]; solvent Methanol,528 nm
same,λbs2,[2]; solvent Methanol,418 nm
same,λem,[2]; solvent Methanol,606 nm
same,ε1 (molar extinction coefficient),[2]; solvent THF,4.8 cm^−1M
same,ε2 (molar extinction coefficient),[2]; solvent THF,1.6 cm^−1M
same,λabs1,[2]; solvent THF,526 nm
same,λbs2,[2]; solvent THF,408 nm
same,λem,[2]; solvent THF,590 nm
same,ε1 (molar extinction coefficient),[2]; solvent Water,3.6 cm^−1M
same,ε2 (molar extinction coefficient),[2]; solvent Water,1.7 cm^−1M
same,λabs1,[2]; solvent Water,527 nm
same,λbs2,[2]; solvent Water,416 nm
same,λem,[2]; solvent Water,619 nm
same,change of fluorescence by interaction with ct-DNA,calf thymus DNA (ct-DNA); listed as Ha,little fluorescence increase
same,change of fluorescence intensity by interaction with protein (BSA),[3]; listed as Ha,largely increased
CCN1/C(=C/C=C/C(=C/C2=[N+](CC)c3ccccc3C2(C)C)NCCO)C(C)(C)c2ccccc21 [Dye IIb],Φ1 (fluorescence quantum yield),[1]; solvent DCM,0.114
same,Φ2 (fluorescence quantum yield),[1]; solvent DCM,0.100
same,Φ1 (fluorescence quantum yield),[1]; solvent DMSO,0.009
same,Φ2 (fluorescence quantum yield),[1]; solvent DMSO,0.008
same,Φ1 (fluorescence quantum yield),[1]; solvent Ethanol,0.019
same,Φ2 (fluorescence quantum yield),[1]; solvent Ethanol,0.017
same,Φ1 (fluorescence quantum yield),[1]; solvent Methanol,0.009
same,Φ2 (fluorescence quantum yield),[1]; solvent Methanol,0.008
same,Φ1 (fluorescence quantum yield),[1]; solvent THF,0.085
same,Φ2 (fluorescence quantum yield),[1]; solvent THF,0.075
same,Φ1 (fluorescence quantum yield),[1]; solvent Water,0.002
same,Φ2 (fluorescence quantum yield),[1]; solvent Water,0.002
same,Δλ1,[2]; solvent DCM,79
same,Δλ1,[2]; solvent DMSO,91
same,Δλ1,[2]; solvent Ethanol,91
same,Δλ1,[2]; solvent Methanol,89
same,Δλ1,[2]; solvent THF,82
same,Δλ1,[2]; solvent Water,103
same,Δλ2,[2]; solvent DCM,167
same,Δλ2,[2]; solvent DMSO,170
same,Δλ2,[2]; solvent Ethanol,177
same,Δλ2,[2]; solvent Methanol,175
same,Δλ2,[2]; solvent THF,158
same,Δλ2,[2]; solvent Water,190
same,ε1 (molar extinction coefficient),[2]; solvent DCM,3.4 cm^−1M
same,ε2 (molar extinction coefficient),[2]; solvent DCM,1.7 cm^−1M
same,λabs1,[2]; solvent DCM,517 nm
same,λbs2,[2]; solvent DCM,429 nm
same,λem,[2]; solvent DCM,596 nm
same,ε1 (molar extinction coefficient),[2]; solvent DMSO,3.0 cm^−1M
same,ε2 (molar extinction coefficient),[2]; solvent DMSO,2.3 cm^−1M
same,λabs1,[2]; solvent DMSO,515 nm
same,λbs2,[2]; solvent DMSO,436 nm
same,λem,[2]; solvent DMSO,606 nm
same,ε1 (molar extinction coefficient),[2]; solvent Ethanol,3.3 cm^−1M
same,ε2 (molar extinction coefficient),[2]; solvent Ethanol,2.3 cm^−1M
same,λabs1,[2]; solvent Ethanol,521 nm
same,λbs2,[2]; solvent Ethanol,435 nm
same,λem,[2]; solvent Ethanol,612 nm
same,ε1 (molar extinction coefficient),[2]; solvent Methanol,3.1 cm^−1M
same,ε2 (molar extinction coefficient),[2]; solvent Methanol,2.4 cm^−1M
same,λabs1,[2]; solvent Methanol,519 nm
same,λbs2,[2]; solvent Methanol,433 nm
same,λem,[2]; solvent Methanol,608 nm
same,ε1 (molar extinction coefficient),[2]; solvent THF,3.6 cm^−1M
same,ε2 (molar extinction coefficient),[2]; solvent THF,2.2 cm^−1M
same,λabs1,[2]; solvent THF,503 nm
same,λbs2,[2]; solvent THF,427 nm
same,λem,[2]; solvent THF,585 nm
same,ε1 (molar extinction coefficient),[2]; solvent Water,2.1 cm^−1M
same,ε2 (molar extinction coefficient),[2]; solvent Water,1.7 cm^−1M
same,λabs1,[2]; solvent Water,517 nm
same,λbs2,[2]; solvent Water,430 nm
same,λem,[2]; solvent Water,620 nm
same,change of fluorescence by interaction with ct-DNA,calf thymus DNA (ct-DNA),little fluorescence increase
same,change of fluorescence intensity by interaction with protein (BSA),[3],largely increased
CCN1/C(=C/C=C/C(=C/C2=[N+](CC)c3ccccc3C2(C)C)N(CCO)CCO)C(C)(C)c2ccccc21 [Dye IIc],Φ1 (fluorescence quantum yield),[1]; solvent DCM,0.124
same,Φ2 (fluorescence quantum yield),[1]; solvent DCM,0.061
same,Φ1 (fluorescence quantum yield),[1]; solvent DMSO,0.005
same,Φ2 (fluorescence quantum yield),[1]; solvent DMSO,0.005
same,Φ1 (fluorescence quantum yield),[1]; solvent Ethanol,0.014
same,Φ2 (fluorescence quantum yield),[1]; solvent Ethanol,0.013
same,Φ1 (fluorescence quantum yield),[1]; solvent Methanol,0.007
same,Φ2 (fluorescence quantum yield),[1]; solvent Methanol,0.008
same,Φ1 (fluorescence quantum yield),[1]; solvent THF,0.109
same,Φ2 (fluorescence quantum yield),[1]; solvent THF,0.099
same,Φ1 (fluorescence quantum yield),[1]; solvent Water,0.001
same,Φ2 (fluorescence quantum yield),[1]; solvent Water,0.001
same,Δλ1,[2]; solvent DCM,96
same,Δλ1,[2]; solvent DMSO,97
same,Δλ1,[2]; solvent Ethanol,97
same,Δλ1,[2]; solvent Methanol,97
same,Δλ1,[2]; solvent THF,88
same,Δλ1,[2]; solvent Water,98
same,Δλ2,[2]; solvent DCM,168
same,Δλ2,[2]; solvent DMSO,154
same,Δλ2,[2]; solvent Ethanol,167
same,Δλ2,[2]; solvent Methanol,169
same,Δλ2,[2]; solvent THF,155
same,Δλ2,[2]; solvent Water,168
same,ε1 (molar extinction coefficient),[2]; solvent DCM,2.8 cm^−1M
same,ε2 (molar extinction coefficient),[2]; solvent DCM,2.1 cm^−1M
same,λabs1,[2]; solvent DCM,526 nm
same,λbs2,[2]; solvent DCM,454 nm
same,λem,[2]; solvent DCM,622 nm
same,ε1 (molar extinction coefficient),[2]; solvent DMSO,2.5 cm^−1M
same,ε2 (molar extinction coefficient),[2]; solvent DMSO,2.1 cm^−1M
same,λabs1,[2]; solvent DMSO,515 nm
same,λbs2,[2]; solvent DMSO,458 nm
same,λem,[2]; solvent DMSO,612 nm
same,ε1 (molar extinction coefficient),[2]; solvent Ethanol,2.8 cm^−1M
same,ε2 (molar extinction coefficient),[2]; solvent Ethanol,2.3 cm^−1M
same,λabs1,[2]; solvent Ethanol,521 nm
same,λbs2,[2]; solvent Ethanol,451 nm
same,λem,[2]; solvent Ethanol,618 nm
same,ε1 (molar extinction coefficient),[2]; solvent Methanol,3.1 cm^−1M
same,ε2 (molar extinction coefficient),[2]; solvent Methanol,2.2 cm^−1M
same,λabs1,[2]; solvent Methanol,522 nm
same,λbs2,[2]; solvent Methanol,450 nm
same,λem,[2]; solvent Methanol,619 nm
same,ε1 (molar extinction coefficient),[2]; solvent THF,3.1 cm^−1M
same,ε2 (molar extinction coefficient),[2]; solvent THF,1.9 cm^−1M
same,λabs1,[2]; solvent THF,517 nm
same,λbs2,[2]; solvent THF,450 nm
same,λem,[2]; solvent THF,605 nm
same,ε1 (molar extinction coefficient),[2]; solvent Water,1.8 cm^−1M
same,ε2 (molar extinction coefficient),[2]; solvent Water,1.9 cm^−1M
same,λabs1,[2]; solvent Water,517 nm
same,λbs2,[2]; solvent Water,447 nm
same,λem,[2]; solvent Water,615 nm
same,change of fluorescence by interaction with ct-DNA,calf thymus DNA (ct-DNA),little fluorescence increase
same,change of fluorescence intensity by interaction with protein (BSA),[3],largely increased

# — patent US8735601B2, “Pentamethine cyanine fluorescent dye with N-substituting at β-position of conjugated chain” (Dalian University of Technology, priority 2010, dated 2014)
